What was measured:
kinases (468) [1] = target: kinases (468) (Homo sapiens, UniProt Q9UQB9); conditions: AURKC; 1000 nM
kinases (468) [2] = target: kinases (468) (Homo sapiens, UniProt Q9Y2U5); conditions: MAP3K2; 1000 nM
kinases (468) [3] = target: kinases (468) (Homo sapiens, UniProt O75385); conditions: kinase ULK1 (Entrez ULK1); compound concentration 1000 nM
kinases (468) [4] = target: kinases (468) (Homo sapiens, UniProt P32298); conditions: GRK4; 1000 nM
kinases (468) [5] = target: kinases (468) (Homo sapiens, UniProt Q9H0K1); conditions: kinase SIK2 (Entrez SIK2); compound concentration 1000 nM
Sequence of kinases (468) (Homo sapiens, UniProt Q9H0K1) (Q9H0K1 whole entry): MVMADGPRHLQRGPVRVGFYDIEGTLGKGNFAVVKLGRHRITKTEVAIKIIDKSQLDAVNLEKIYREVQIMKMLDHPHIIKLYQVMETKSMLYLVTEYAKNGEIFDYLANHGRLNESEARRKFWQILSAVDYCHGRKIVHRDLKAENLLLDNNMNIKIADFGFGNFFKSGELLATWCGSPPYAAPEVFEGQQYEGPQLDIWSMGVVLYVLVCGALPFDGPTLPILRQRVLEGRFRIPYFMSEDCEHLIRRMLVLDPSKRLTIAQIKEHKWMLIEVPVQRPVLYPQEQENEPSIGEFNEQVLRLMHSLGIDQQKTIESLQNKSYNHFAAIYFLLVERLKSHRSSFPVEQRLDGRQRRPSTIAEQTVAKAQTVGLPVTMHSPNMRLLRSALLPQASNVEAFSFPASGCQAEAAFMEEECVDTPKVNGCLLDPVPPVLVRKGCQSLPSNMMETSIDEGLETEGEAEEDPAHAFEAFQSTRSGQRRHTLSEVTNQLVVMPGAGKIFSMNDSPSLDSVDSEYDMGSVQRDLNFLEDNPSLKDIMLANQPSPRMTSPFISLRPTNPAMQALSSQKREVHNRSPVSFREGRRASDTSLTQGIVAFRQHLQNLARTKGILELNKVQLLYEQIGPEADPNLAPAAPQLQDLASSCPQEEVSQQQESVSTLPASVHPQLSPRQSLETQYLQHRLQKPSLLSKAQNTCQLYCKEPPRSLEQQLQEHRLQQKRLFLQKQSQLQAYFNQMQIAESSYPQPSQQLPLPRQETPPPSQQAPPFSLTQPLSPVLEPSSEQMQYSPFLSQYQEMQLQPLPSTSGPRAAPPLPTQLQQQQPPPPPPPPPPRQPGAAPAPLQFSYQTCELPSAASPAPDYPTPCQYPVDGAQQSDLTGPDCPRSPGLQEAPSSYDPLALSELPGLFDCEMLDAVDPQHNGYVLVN

kinases (468) [6] = target: kinases (468) (Homo sapiens, UniProt P36888, D835Y); conditions: FLT3(D835Y); 1000 nM
kinases (468) [7] = target: kinases (468) (Homo sapiens, UniProt P36894); conditions: BMPR1A; 1000 nM
kinases (468) [8] = target: kinases (468) (Homo sapiens, UniProt P49841); conditions: GSK3B; 1000 nM
kinases (468) [9] = target: kinases (468) (Homo sapiens, UniProt Q9Y5S2); conditions: MRCKB (CDC42BPB); 1000 nM
kinases (468) [10] = target: kinases (468) (Homo sapiens, UniProt Q14004); conditions: CDC2L5 (CDK13); 1000 nM
kinases (468) [11] = target: kinases (468) (Homo sapiens, UniProt Q02779); conditions: MLK2 (MAP3K10); 1000 nM
kinases (468) [12] = target: kinases (468) (Homo sapiens, UniProt Q9UM73); conditions: ALK; 1000 nM
kinases (468) [13] = target: kinases (468) (Homo sapiens, UniProt Q8NE63); conditions: HIPK4; 1000 nM
kinases (468) [14] = target: kinases (468) (Homo sapiens, UniProt Q9Y2H9); conditions: MAST1; 1000 nM
Sequence of kinases (468) (Homo sapiens, UniProt Q9Y2H9) (Q9Y2H9 whole entry): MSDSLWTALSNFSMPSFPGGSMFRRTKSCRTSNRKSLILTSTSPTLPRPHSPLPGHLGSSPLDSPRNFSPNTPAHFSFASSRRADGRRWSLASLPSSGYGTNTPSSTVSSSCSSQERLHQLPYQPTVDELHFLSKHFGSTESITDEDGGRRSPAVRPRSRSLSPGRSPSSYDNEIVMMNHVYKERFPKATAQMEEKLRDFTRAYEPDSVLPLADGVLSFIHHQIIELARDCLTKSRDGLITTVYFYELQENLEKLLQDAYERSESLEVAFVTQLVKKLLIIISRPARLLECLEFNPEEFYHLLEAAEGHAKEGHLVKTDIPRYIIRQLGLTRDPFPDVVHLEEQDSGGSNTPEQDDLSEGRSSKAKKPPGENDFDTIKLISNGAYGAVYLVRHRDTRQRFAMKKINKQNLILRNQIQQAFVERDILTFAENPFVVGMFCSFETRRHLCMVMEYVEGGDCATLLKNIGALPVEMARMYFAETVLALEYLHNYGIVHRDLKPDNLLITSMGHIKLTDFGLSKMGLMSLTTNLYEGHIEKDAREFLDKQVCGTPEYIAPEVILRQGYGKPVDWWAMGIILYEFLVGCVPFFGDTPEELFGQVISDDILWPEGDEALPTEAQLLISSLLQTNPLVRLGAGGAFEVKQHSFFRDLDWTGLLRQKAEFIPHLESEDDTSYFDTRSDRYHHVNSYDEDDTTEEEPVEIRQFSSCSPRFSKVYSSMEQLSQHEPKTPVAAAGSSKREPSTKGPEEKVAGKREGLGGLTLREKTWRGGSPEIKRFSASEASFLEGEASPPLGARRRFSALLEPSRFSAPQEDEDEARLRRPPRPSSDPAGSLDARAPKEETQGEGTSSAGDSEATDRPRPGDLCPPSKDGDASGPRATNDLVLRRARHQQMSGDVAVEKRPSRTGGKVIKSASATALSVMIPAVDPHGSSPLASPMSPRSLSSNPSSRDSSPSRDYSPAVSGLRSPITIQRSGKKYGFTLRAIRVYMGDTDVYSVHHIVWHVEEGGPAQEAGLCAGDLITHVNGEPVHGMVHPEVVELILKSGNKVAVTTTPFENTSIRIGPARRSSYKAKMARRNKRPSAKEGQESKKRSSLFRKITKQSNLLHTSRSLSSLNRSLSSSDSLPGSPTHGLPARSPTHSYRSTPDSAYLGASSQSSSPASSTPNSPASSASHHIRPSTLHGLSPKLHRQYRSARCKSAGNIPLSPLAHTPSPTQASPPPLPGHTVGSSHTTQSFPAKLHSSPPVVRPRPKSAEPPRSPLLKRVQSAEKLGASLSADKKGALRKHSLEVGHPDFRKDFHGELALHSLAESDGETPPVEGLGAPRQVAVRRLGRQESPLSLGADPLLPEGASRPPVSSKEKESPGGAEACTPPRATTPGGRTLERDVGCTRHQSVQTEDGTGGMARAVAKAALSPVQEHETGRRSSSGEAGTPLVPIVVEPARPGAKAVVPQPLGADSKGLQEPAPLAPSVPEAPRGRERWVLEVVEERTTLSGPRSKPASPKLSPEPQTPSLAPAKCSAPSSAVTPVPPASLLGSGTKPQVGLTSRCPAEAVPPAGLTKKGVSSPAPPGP

kinases (468) [15] = target: kinases (468) (Homo sapiens, UniProt Q13153); conditions: PAK1; 1000 nM
kinases (468) [16] = target: kinases (468) (Homo sapiens, UniProt P42336, H1047L); conditions: PIK3CA(H1047L); 1000 nM
kinases (468) [17] = target: kinases (468) (Homo sapiens, UniProt Q15831); conditions: LKB1 (STK11); 1000 nM
kinases (468) [18] = target: kinases (468) (Homo sapiens, UniProt Q96GD4); conditions: AURKB; 1000 nM
kinases (468) [19] = target: kinases (468) (Homo sapiens, UniProt Q8N752); conditions: CSNK1A1L; 1000 nM
Sequence of kinases (468) (Homo sapiens, UniProt Q8N752) (Q8N752 whole entry): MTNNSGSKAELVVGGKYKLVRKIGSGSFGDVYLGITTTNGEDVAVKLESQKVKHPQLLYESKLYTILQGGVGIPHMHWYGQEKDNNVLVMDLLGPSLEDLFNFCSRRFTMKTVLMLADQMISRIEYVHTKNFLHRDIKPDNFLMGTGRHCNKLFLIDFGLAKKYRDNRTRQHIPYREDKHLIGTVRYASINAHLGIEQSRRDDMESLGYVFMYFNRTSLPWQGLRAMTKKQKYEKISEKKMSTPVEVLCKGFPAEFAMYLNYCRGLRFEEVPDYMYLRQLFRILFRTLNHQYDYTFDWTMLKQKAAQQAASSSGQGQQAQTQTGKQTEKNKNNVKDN

kinases (468) [20] = target: kinases (468) (Homo sapiens, UniProt P36888, K663Q); conditions: FLT3(K663Q); 1000 nM
kinases (468) [21] = target: kinases (468) (Homo sapiens, UniProt P27361); conditions: ERK1 (MAPK3); 1000 nM
Sequence of kinases (468) (Homo sapiens, UniProt P27361) (P27361 whole entry): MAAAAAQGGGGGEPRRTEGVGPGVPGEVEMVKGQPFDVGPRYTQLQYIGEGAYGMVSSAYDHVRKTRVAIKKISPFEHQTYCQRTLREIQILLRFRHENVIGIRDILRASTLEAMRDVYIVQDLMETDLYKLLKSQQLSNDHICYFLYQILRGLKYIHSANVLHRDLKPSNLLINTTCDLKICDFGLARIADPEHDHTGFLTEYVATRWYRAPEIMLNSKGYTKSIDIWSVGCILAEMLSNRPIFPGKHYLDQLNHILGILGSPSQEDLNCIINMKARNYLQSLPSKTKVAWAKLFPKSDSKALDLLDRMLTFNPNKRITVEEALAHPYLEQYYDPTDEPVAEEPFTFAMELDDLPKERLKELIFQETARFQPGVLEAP

kinases (468) [22] = target: kinases (468) (Homo sapiens, UniProt Q9UIK4); conditions: DAPK2; 1000 nM
kinases (468) [23] = target: kinases (468) (Homo sapiens, UniProt Q8NFD2); conditions: ANKK1; 1000 nM
kinases (468) [24] = target: kinases (468) (Homo sapiens, UniProt Q13555); conditions: CAMK2G; 1000 nM
Sequence of kinases (468) (Homo sapiens, UniProt Q13555) (Q13555 whole entry): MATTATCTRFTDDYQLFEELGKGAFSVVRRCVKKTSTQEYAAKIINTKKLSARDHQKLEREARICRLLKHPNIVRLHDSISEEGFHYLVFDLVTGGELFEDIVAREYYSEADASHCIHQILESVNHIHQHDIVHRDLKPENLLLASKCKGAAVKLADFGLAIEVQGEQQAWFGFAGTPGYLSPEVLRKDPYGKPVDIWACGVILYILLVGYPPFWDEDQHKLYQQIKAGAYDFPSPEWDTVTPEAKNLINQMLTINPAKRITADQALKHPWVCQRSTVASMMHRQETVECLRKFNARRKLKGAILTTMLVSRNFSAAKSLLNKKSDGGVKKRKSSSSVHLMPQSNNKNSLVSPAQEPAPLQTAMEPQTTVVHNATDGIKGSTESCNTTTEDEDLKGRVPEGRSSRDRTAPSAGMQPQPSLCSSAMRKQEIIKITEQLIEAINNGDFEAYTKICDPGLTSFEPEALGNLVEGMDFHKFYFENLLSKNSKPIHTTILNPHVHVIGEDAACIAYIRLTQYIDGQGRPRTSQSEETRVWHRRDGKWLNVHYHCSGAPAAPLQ

kinases (468) [25] = target: kinases (468) (Homo sapiens, UniProt P57058); conditions: HUNK; 1000 nM
kinases (468) [26] = target: kinases (468) (Homo sapiens, UniProt Q96NX5); conditions: CAMK1G; 1000 nM
kinases (468) [27] = target: kinases (468) (Homo sapiens, UniProt P49761); conditions: CLK3; 1000 nM
kinases (468) [28] = target: kinases (468) (Homo sapiens, UniProt P41743); conditions: PRKCI; 1000 nM
kinases (468) [29] = target: kinases (468) (Homo sapiens, UniProt P23443); conditions: kinase S6K1 (Entrez RPS6KB1); compound concentration 1000 nM
kinases (468) [30] = target: kinases (468) (Homo sapiens, UniProt Q86V86); conditions: PIM3; 1000 nM
kinases (468) [31] = target: kinases (468) (Homo sapiens, UniProt P42681); conditions: kinase TXK (Entrez TXK); compound concentration 1000 nM
kinases (468) [32] = target: kinases (468) (Homo sapiens, UniProt P08069); conditions: IGF1R; 1000 nM
kinases (468) [33] = target: kinases (468) (Homo sapiens, UniProt Q8WXR4); conditions: MYO3B; 1000 nM
kinases (468) [34] = target: kinases (468) (Homo sapiens, UniProt O15197); conditions: EPHB6; 1000 nM
Sequence of kinases (468) (Homo sapiens, UniProt O15197) (O15197 32-1021): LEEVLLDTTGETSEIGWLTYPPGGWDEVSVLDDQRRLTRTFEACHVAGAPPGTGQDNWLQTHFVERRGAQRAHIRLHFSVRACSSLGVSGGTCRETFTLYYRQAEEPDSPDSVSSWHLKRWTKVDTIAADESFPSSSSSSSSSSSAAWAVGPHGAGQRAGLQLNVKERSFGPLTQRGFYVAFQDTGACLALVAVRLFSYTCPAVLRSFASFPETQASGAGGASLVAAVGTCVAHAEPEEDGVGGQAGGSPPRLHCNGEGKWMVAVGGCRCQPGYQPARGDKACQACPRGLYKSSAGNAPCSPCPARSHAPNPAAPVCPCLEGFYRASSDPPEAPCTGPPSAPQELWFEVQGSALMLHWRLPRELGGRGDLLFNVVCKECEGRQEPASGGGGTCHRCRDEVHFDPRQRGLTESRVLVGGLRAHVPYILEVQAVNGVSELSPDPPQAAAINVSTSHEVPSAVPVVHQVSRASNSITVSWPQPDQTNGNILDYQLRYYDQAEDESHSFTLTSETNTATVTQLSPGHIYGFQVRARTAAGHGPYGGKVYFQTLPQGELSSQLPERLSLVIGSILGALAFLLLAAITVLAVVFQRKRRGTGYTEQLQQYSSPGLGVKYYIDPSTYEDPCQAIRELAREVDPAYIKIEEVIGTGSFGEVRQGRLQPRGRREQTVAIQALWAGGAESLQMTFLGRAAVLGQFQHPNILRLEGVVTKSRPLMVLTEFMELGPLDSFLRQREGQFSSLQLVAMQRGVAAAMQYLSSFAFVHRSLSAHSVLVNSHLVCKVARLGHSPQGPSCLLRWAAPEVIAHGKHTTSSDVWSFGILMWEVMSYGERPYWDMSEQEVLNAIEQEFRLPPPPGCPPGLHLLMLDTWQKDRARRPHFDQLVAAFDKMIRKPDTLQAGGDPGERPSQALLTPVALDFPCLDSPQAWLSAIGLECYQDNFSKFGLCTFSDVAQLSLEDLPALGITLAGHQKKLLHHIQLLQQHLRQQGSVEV

kinases (468) [35] = target: kinases (468) (Homo sapiens, UniProt P04626); conditions: ERBB2; 1000 nM

Sequence of kinases (468) (Homo sapiens, UniProt Q9UQB9) (Q9UQB9 whole entry): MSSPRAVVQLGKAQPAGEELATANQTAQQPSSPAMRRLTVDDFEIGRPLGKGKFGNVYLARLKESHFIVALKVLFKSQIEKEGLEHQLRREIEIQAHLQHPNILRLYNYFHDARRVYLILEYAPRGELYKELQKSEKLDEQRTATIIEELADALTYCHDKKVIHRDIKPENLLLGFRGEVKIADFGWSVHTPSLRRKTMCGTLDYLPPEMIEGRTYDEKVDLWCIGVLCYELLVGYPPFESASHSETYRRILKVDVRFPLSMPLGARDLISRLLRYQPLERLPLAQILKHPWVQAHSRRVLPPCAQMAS

Structure (SMILES): C[C@H]1C[C@@H](O)CN(c2ncc(Cl)c(Nc3ccc4c(c3)c3c(c(=O)n4C)OCC(F)(F)[C@H](C4CC4)N3)n2)C1 [CCT373566_9A]
- Percent Control (kinases (468) [1]): 100%
- Percent Control (kinases (468) [2]): 95%
- Percent Control (kinases (468) [3]): 93%
- Percent Control (kinases (468) [4]): 91%
- Percent Control (kinases (468) [5]): 98%
- Percent Control (kinases (468) [6]): 90%
- Percent Control (kinases (468) [7]): 100%
- Percent Control (kinases (468) [8]): 94%
- Percent Control (kinases (468) [9]): 100%
- Percent Control (kinases (468) [10]): 99%
- Percent Control (kinases (468) [11]): 100%
- Percent Control (kinases (468) [12]): 98%
- Percent Control (kinases (468) [13]): 96%
- Percent Control (kinases (468) [14]): 100%
- Percent Control (kinases (468) [15]): 100%
- Percent Control (kinases (468) [16]): 84%
- Percent Control (kinases (468) [17]): 65%
- Percent Control (kinases (468) [18]): 92%
- Percent Control (kinases (468) [19]): 96%
- Percent Control (kinases (468) [20]): 97%
- Percent Control (kinases (468) [21]): 98%
- Percent Control (kinases (468) [22]): 99%
- Percent Control (kinases (468) [23]): 95%
- Percent Control (kinases (468) [24]): 96%
- Percent Control (kinases (468) [25]): 100%
- Percent Control (kinases (468) [26]): 96%
- Percent Control (kinases (468) [27]): 97%
- Percent Control (kinases (468) [28]): 88%
- Percent Control (kinases (468) [29]): 85%
- Percent Control (kinases (468) [30]): 100%
- Percent Control (kinases (468) [31]): 99%
- Percent Control (kinases (468) [32]): 100%
- Percent Control (kinases (468) [33]): 100%
- Percent Control (kinases (468) [34]): 93%
- Percent Control (kinases (468) [35]): 94%
